This is an account of results in article PMC12777571, “The molecular basis of intrinsic resistance to azoles in Rhizopus arrhizus” (Antimicrobial Agents and Chemotherapy, 2025).

Test [1] has as its target T1, partially purified RaCYP51-F5 (Rhizopus delemar, UniProt I1CTV4).
T1 construct: gene RO3G_16595; full-length, codon-optimized, C-terminal GGR linker and 6xHis; expressed in S. cerevisiae ADΔΔ; Ni-NTA purified from n-decyl-β-D-maltoside extract; ~60 kDa
Description: type II difference spectrum (Soret red shift). Type of test: binding. The conditions noted are these: 1.0 µM enzyme, 40 µM azole (saturating); heme iron coordination.

Test [2] concerns the target T2, RaCYP51-F5 + RaCPR (strain Y-F5/CPR and variants) (Rhizopus delemar, UniProt I1CTV4, A291V).
T2 construct: gene RO3G_16595; full-length, codon-optimized, C-terminal GGR linker and 6xHis; co-expressed with 6xHis RaCPR in S. cerevisiae ADΔΔ deleted of native ERG11; crude membranes; ~60 kDa; with NADPH--cytochrome P450 reductase
Description: inhibition of BOMCC hydrolysis in crude membranes, fluorescence. The class given is biochemical.

The target of test [3] is T3, RaCYP51-F1 + RaCPR (strain Y-F1/CPR) (Rhizopus delemar, UniProt I1CF49).
T3 construct: gene RO3G_11790; full-length, codon-optimized, C-terminal GGR linker and 6xHis; co-expressed with 6xHis RaCPR in S. cerevisiae ADΔΔ deleted of native ERG11; crude membranes; ~60 kDa; with NADPH--cytochrome P450 reductase
T3 sequence (I1CF49 entry or part of it): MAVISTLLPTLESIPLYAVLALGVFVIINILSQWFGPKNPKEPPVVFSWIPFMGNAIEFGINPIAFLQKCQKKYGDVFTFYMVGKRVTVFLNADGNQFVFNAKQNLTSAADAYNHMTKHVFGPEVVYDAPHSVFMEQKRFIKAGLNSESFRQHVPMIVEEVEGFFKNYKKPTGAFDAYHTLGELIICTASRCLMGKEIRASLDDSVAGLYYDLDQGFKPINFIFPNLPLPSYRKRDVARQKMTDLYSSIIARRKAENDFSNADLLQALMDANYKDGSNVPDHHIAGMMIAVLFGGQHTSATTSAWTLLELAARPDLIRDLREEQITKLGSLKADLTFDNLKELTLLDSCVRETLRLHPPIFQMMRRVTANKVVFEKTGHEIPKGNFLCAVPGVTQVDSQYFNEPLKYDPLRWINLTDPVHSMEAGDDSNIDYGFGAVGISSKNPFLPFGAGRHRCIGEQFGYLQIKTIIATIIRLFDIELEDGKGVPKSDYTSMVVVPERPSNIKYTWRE
T3 sequence (I1CM61 entry or part of it, further chain): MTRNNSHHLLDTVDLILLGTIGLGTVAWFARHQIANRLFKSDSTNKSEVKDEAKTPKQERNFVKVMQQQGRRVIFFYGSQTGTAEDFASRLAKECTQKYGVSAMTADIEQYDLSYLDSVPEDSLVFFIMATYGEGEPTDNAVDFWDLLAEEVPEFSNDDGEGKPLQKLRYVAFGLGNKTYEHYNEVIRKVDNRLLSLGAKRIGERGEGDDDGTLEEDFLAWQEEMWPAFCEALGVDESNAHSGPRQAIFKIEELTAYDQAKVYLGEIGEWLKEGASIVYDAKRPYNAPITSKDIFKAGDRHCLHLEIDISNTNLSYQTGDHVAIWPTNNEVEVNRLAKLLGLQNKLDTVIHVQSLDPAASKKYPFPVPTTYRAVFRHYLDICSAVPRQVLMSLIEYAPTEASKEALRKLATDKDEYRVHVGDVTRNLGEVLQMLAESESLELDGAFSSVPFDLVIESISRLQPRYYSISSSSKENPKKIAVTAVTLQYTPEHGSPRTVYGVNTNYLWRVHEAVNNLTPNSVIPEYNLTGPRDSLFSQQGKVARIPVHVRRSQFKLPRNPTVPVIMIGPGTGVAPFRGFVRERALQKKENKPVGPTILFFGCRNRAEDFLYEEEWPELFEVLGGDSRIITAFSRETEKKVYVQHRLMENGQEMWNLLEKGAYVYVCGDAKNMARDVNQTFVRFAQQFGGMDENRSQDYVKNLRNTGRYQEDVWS
Described as above. Type of test: biochemical.
Description: inhibition of BOMCC hydrolysis in crude membranes, fluorescence on RaCYP51-F1 + RaCPR (strain Y-F1/CPR)

The target in test [4] is T4, RaCYP51-F5 + RaCPR (strain Y-F5/CPR and variants) (Rhizopus delemar, UniProt I1CTV4, A291V/F129Y).
T4 construct: gene RO3G_16595; full-length, codon-optimized, C-terminal GGR linker and 6xHis; co-expressed with 6xHis RaCPR in S. cerevisiae ADΔΔ deleted of native ERG11; crude membranes; ~60 kDa; with NADPH--cytochrome P450 reductase
T4 sequence (I1CTV4 whole entry, stated change not applied): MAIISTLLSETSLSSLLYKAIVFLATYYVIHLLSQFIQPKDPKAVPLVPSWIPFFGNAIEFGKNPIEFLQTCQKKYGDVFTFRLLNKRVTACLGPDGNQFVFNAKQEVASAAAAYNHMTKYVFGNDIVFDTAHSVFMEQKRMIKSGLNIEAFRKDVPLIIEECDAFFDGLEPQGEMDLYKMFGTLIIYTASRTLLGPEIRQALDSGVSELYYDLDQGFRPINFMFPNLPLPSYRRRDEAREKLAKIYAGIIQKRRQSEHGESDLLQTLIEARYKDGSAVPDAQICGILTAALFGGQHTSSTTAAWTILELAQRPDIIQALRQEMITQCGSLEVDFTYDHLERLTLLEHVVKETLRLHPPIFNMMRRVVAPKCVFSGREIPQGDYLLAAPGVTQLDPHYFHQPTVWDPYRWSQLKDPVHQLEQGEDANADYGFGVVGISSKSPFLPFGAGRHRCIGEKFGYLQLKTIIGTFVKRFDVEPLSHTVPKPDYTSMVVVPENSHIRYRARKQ
T4 sequence (I1CM61 whole entry, stated change not applied, further chain): as the sequence (I1CM61 entry or part of it, further chain) above
The description is as above. The class given is biochemical.

Test [5] has as its target T5, RaCYP51-F5 + RaCPR (strain Y-F5/CPR and variants) (Rhizopus delemar, UniProt I1CTV4).
T5 construct: gene RO3G_16595
Description: biochemical. An excerpt: inhibition of BOMCC hydrolysis in crude membranes, fluorescence on RaCYP51-F5 + RaCPR (strain Y-F5/CPR and variants)

Test [6] addresses T6, RaCYP51-F5 + RaCPR (strain Y-F5/CPR and variants) (Rhizopus delemar, UniProt I1CTV4, F129Y).
T6 construct: gene RO3G_16595; full-length, codon-optimized, C-terminal GGR linker and 6xHis; co-expressed with 6xHis RaCPR in S. cerevisiae ADΔΔ deleted of native ERG11; crude membranes; ~60 kDa; with NADPH--cytochrome P450 reductase
Put plainly: inhibition of BOMCC hydrolysis in crude membranes, fluorescence. Type of test: biochemical.

Where two headings read alike, the source gives them in different places.

T6 sequence (I1CM61 whole entry, stated change not applied): as the sequence (I1CM61 entry or part of it, further chain) above
T6 sequence (I1CTV4 whole entry, stated change not applied): as the sequence (I1CTV4 whole entry, stated change not applied) above
T2 sequence (I1CTV4 whole entry, stated change not applied): as above
T2 sequence (I1CM61 whole entry, stated change not applied, further chain): as the sequence (I1CM61 entry or part of it, further chain) above

In the case of `CC[C@@H]([C@H](C)O)n1ncn(-c2ccc(N3CCN(c4ccc(OC[C@@H]5CO[C@@](Cn6cncn6)(c6ccc(F)cc6F)C5)cc4)CC3)cc2)c1=O` [posaconazole], in test [1], the “type II difference spectrum (Soret red shift)” value was “bound posaconazole or voriconazole upon exposure to saturating levels of these drugs”. Also, the IC50 – broadly, the concentration that gives 50% inhibition – stood at 55 ± 7 nM in test [2]; 21 ± 11 nM in test [3] (read-out: Posaconazole IC50); 63 nM in test [4]; 56 ± 28 nM in test [5]; 75 ± 35 nM in test [6].

For the compound `C[C@@H](c1ncncc1F)[C@](O)(Cn1cncn1)c1ccc(F)cc1F` [voriconazole], in test [1], the “type II difference spectrum (Soret red shift)” value is “bound posaconazole or voriconazole upon exposure to saturating levels of these drugs”. Further, the IC50 in test [2] is 500 nM; in test [3] (read-out: Voriconazole IC50), 100 ± 70 nM; in test [4], 60 ± 14 nM; in test [5] it was > 1000 nM; in test [6] it was 140 ± 57 nM.
